What all share (assay type): biochemical
Holding throughout (settings): Table 2 selectivity profile

The target in test [1] is T1, recombinant human MMP-1 (Homo sapiens, UniProt P03956).
T1 sequence (P03956 100-469): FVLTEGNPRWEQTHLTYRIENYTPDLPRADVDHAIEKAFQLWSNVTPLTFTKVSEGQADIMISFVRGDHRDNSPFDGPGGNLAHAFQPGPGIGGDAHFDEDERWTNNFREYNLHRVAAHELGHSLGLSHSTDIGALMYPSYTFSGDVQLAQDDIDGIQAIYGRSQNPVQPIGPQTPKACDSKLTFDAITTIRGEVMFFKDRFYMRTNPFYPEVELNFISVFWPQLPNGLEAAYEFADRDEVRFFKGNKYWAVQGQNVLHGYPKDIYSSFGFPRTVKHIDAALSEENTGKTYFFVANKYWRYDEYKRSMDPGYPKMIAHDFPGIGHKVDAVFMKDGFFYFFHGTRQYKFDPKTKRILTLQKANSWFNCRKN
Put plainly: MMP selectivity assay, MMP-1. How it is done: (§1) The inhibitory effect of compounds on the rate of cleaving fluorogenic MMP substrate (Enzo, BML-P128) by recombinant human MMP-12 catalytic domain (Enzo, BML-SE138) was carried out by methods known in the art. Briefly, to each well of a 96-well black opaque plate, all the reagents were sequentially added by pipetting, and the final reaction contained 4 nM of recombinant human MMP-12 catalytic domain, 4 μM of fluorogenic MMP substrate, and various concentrations (0.15 nM to 10,000 nM) of tested compound dilutions in HEPES buffer (pH 7.5) containing 10 mM of CaCl2), 0.01% Brij® 35 (polyoxyethylene (23) lauryl ether), and 0.1 mg/ml of BSA.
(§2) The enzyme and compounds were pre-incubated on a shaker to mix in wells. After an hour of mixing, fluorogenic substrate was added to each well. Reaction without enzyme was used as a blank control in the plate. The plate was then fed into a plate reader to measure fluorescence intensity at Excitation/Emission wavelengths of 340 nm/440 nm every 10 mins for at least 1 hour at 37° C. The IC50 of each compound in MMP-12 inhibition was determined by using a readout obtained at time point 30 minutes.
(§3) The MMP selectivity assay was performed by using other recombinant human MMPs, including MMP-1, MMP-2, MMP-3, MMP-7, MMP-8, MMP-9, MMP-10, MMP-13, and MMP-14. The IC50 of the compounds for the other recombinant human MMPs was determined as described above in Example 1, and are shown in Table 2.

The target in test [2] is recombinant human MMP-9 (Homo sapiens, UniProt P14780). Nature of the test: MMP selectivity assay, MMP-9. How it is done:
as §1, §2, §3

Test [3] addresses recombinant human MMP-14 (Homo sapiens, UniProt P50281). Put plainly: MMP selectivity assay, MMP-14. How it is done: as §1, §2, §3
Test [4] addresses recombinant human MMP-3 (Homo sapiens, UniProt P08254). Nature of the test: MMP selectivity assay, MMP-3. How it is done:
as §1, §2, §3

In test [5] the target is recombinant human MMP-8 (Homo sapiens, UniProt P22894). Put plainly: MMP selectivity assay, MMP-8. How it is done: as §1, §2, §3

This passage reports IC50 results from patent US20190352288A1, “MATRIX METALLOPROTEINASE (MMP) INHIBITORS AND METHODS OF USE THEREOF” (Foresee Pharmaceuticals Co., Ltd., priority 2018, published 2019).

Structures are written as SMILES. Bounds are passed on as bounds.

In general, IC50 refers to the concentration at which inhibition is half-maximal.

Sequence of recombinant human MMP-8 (P22894 101-467): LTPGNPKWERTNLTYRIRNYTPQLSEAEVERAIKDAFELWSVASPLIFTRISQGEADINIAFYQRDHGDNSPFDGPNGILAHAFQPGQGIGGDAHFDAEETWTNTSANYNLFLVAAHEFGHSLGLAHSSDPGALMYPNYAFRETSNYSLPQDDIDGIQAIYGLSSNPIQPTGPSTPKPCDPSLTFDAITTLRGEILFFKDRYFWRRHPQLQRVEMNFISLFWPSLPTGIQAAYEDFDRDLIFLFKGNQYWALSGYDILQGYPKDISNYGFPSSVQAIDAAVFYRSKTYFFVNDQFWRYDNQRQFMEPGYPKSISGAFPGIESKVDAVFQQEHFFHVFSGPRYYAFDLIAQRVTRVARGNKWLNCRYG
Sequence of recombinant human MMP-3 (P08254 100-477): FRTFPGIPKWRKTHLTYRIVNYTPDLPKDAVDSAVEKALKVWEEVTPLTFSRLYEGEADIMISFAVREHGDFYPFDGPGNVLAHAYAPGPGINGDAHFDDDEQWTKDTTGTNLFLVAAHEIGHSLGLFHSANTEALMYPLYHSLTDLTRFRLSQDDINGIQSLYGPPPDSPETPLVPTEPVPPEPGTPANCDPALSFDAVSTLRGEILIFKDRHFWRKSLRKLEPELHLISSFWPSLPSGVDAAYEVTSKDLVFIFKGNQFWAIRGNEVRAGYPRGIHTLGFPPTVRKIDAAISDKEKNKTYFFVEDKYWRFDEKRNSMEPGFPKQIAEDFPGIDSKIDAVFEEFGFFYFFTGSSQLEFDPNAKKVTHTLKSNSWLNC
Sequence of recombinant human MMP-9 (P14780 94-707): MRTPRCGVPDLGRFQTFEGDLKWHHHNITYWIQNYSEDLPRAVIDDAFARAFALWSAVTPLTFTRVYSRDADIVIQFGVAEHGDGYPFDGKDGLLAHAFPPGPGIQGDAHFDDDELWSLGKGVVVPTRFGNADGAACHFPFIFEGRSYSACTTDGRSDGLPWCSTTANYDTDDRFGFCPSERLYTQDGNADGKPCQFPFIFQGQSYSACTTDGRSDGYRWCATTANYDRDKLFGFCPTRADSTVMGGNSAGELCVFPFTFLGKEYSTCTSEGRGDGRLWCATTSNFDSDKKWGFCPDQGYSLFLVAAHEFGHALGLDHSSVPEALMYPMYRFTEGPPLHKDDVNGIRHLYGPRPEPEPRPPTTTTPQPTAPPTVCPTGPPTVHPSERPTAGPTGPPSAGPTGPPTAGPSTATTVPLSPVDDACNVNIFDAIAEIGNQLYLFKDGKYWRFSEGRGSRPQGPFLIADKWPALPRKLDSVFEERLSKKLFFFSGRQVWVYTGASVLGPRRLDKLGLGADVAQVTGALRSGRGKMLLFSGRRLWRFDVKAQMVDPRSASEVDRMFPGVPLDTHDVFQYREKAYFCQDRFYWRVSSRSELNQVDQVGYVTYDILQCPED

As to `Cc1cc(COc2ccc(Sc3ccncc3C3NC(=O)NC3=O)cc2)ccn1` (centres unmarked) [PC-16], the IC50 in test [1] is more than 10 µM; in test [2], 1 to 10 µM; in test [3] it was 1 to 10 µM; in test [4] it was 1 to 10 µM; in test [5] it was 1 to 10 µM.
